From patent US6121323A, “Bishydroxyureas” (3M Innovative Properties Company, priority 1997, dated 2000)

Assays:
[1] = test system: Leukotriene C4 production in mouse peritoneal macrophages; test: In vitro mouse peritoneal macrophage Leukotriene C4 inhibition; assay type: cell-based; conditions: zymosan stimulated, read-out: Percent Inhibition
Experimental: IN VITRO MOUSE PERITONEAL MACROPHAGE LEUKOTRIENE C4 INHIBITION
The test described below measures the ability of compounds to inhibit the production of Leukotriene C4 in mouse peritoneal macrophages.
Mice (female, CD-1, weighing 25 g) are euthanized by exposure to carbon dioxide. The pertoneal cavity is exposed by peeling back the abdominal skin. A 5 mL portion of media (M199 containing 1% fetal bovine serum, 100 units/mL of penicillin, 100 μg/mL streptomycin, 20 units/mL of heparin and no glutamine) is injected into the exposed peritoneal cavity of each mouse. The lavage fluid is removed and pooled to yield proximately 1×10^6 macrophages/mL. A 2 mL portion of lavage fluid is added to each well of a 24 well sterile multidish and the marcophages are allowed to adhere to the plate for 2 hours at 37° C. in a 5% carbon dioxide atmosphere. The media is removed and each well is washed with 2 mL of phosphate buffered saline (PBS). A 1 mL portion of media, without heparin, but containing 5 μCi/mL of 3H-myoinositol is added to each well and the plates are incubated overnight at 37° C. in a 5% carbon dioxide atmosphere. The media is removed and the cells are washed twice with 2 mL portions of PBS. A 1 mL portion of Puck's saline formulation A containing 1 mM calcium chloride, 1 mM magnesium chloride and 10 mM lithium chloride is added to each well. (The Puck's formulation is made first as a 10× solution which contains 4 g of potassium chloride, 80 g of sodium chloride and 10 g of glucose per liter. The Puck's saline formulation A is made using 10 mL of the 10× Puck's formulation, 0.47 mL of 7.5% sodium bicarbonate and 2 mL of 1M N-2-hydroxyethylpiperazine-N'-2-ethanesulfonic acid per 100 mL.)
Compounds are dissolved in dimethyl sulfoxide. Compounds are tested at concentrations of 10, 1 and 0.1 μM. Each concentration is tested in duplicate.
A 1 μL portion of compound solution or vehicle (DMSO) is added to each well and the plates are incubated for 15 minutes at 37° C. in a 5% carbon dioxide atmosphere. Zymosan is then added to provide a final concentration of 50 μg/mL in each well and the plate is incubated for 1 to 2 hours at 37° C. in a 5% carbon dioxide atmosphere.
Following incubation 200 μL portions of media are transferred to 12×75 mm tubes. The tubes are either assayed immediately or stored at -20° C. until they can be assayed.
The media is assayed for the presence of Leukotriene C4 by radioimmunoassay which is performed according to the manufacturer's instructions (Advanced Magnetics; Cambridge, Mass.). Inhibition of LTC4 production is calculated as the ratio of the amount of LTC4 formed in the presence (LTC4 +cpd) and absence (LTC4 no cpd)of compound according to the equation below. [formula] IC50 values (concentration of compound producing a 50% inhibition of LTC4 production) are calculated by linear regression analysis of percentage inhibition versus log compound concentration plots.

[2] = test system: Leukotriene B4 production in rat blood; test: Rat ex vivo Leukotriene B4 inhibition; assay type: in vivo; conditions: 50 mg/Kg oral, 2 hours post dose, ex vivo A23187 challenge
Experimental: RAT EX VIVO LEUKOTRIENE B4 INHIBITION
The test method described below measures the ability of a compound when administrated orally to rats to inhibit the production of Leukotriene B4 in their blood which is drawn and challenged.
Rats (CD, male, non-fasted, 250 g) are lightly anesthetized with carbon dioxide and an approximately 0.75 mL sample of whole blood is obtained via cardiac puncture. The sample is dispensed into 12×75 mm polypropylene tubes containing 8-10 μL of 10,000 units/mL heparin, mixed and then maintained on ice. The rats are allowed to recover approximately one hour then dosed orally with compound dissolved in PEG 400 at a 5 mL/Kg volume. Five (5) rats are utilized per group. Two (2) hours post dose the rats are again anesthetized with carbon dioxide and the blood sampled again via cardiac puncture.
Duplicate 200 μL portions of blood are added to 1.0 mL polypropylene tubes. A 10 μL portion of 1 mM A23 187 Calcium Ionophore in dimethyl sulfoxide/Tris buffer is added to each tube. The tubes are gently vortexed then incubated in a 37° C. water bath for 30 minutes. The tubes are then centrifuged at 4000 rpm for 10 minutes. 50 μL portions of plasma are transferred to 1.0 mL tubes containing 200 μL of methanol. The tubes are vortexed then placed in the freezer overnight.
The tubes are removed from the freezer then centrifuged at 4000 rpm for 10 minutes. 20 μL portions of the methanol/plasma supernatant and 10 μl methanol dilutions of LTB4 standard are transferred to 96 well v-bottom microtiter plates. The plates are vacuum dried at 40° C. A 40 μL portion of LTB4 radioimmunoassay buffer is added to each well. The plate is bath sonicated for 5 minutes then assayed according to the manufacturer's instructions (Advanced Magnetics; Cambridge, Mass.). Percent inhibition values are obtained by comparing the level of LTB4 in the post-dose samples to the level in the pre-dose samples according to the equation below. [formula]

| SMILES | inhibition at 0.1 µM [1] [%] | inhibition at 1 µM [1] [%] | inhibition at 10 µM [1] [%] | inhibition in vivo at 50 mg/kg [2] [%] |
| --- | --- | --- | --- | --- |
| CCc1cc(Cc2cc(CC)c(NC(=O)N(C)O)c(CC)c2)cc(CC)c1NC(=O)N(C)O [Example 4, 4,4'-Methylenebis(1-hydroxy-1-methyl-3-(2,6-diethylphenyl)urea)] | -24 | 6 | 67 | – |
| CN(O)C(=O)Nc1ccc(C(c2ccc(NC(=O)N(C)O)cc2)(C(F)(F)F)C(F)(F)F)cc1 [Example 5, 4,4'-(2,2-Hexafluoropropane)bis(1-hydroxy-1-methyl-3-phenylurea)] | 91 | 100 | 100 | – |
| CN(O)C(=O)Nc1ccc(Oc2ccc(NC(=O)N(C)O)cc2)cc1 [Example 6, 4,4'-Oxybis(1-hydroxy-1-methyl-3-phenylurea)] | 48 | 99 | 99 | – |
| O=C(NCCCCCCNC(=O)N(O)Cc1ccccc1)N(O)Cc1ccccc1 [Example 10, 1,1'-Hexamethylenebis(3-hydroxy-3-benzylurea)] | 7 | 94 | 94 | 8 |
| CN(O)C(=O)Nc1cccc(NC(=O)N(C)O)c1 [Example 7, 1,1'-(m-Phenylene)bis(3-hydroxy-3-methylurea)] | -19 | 7 | 98 | 59 |
| COc1cc(-c2ccc(NC(=O)N(C)O)c(OC)c2)ccc1NC(=O)N(C)O [Example 11] | 42 | 100 | 99 | 4 |
| CN(O)C(=O)N[C@H]1CC[C@H](NC(=O)N(C)O)CC1 [Example 9, trans-1,4-Cyclohexanebis(3-hydroxy-3-methylurea)] | 1 | 1 | -6 | 4 |
| CN(O)C(=O)Nc1cccc2c(NC(=O)N(C)O)cccc12 [Example 8, 1,1'-(1,5-Naphthalene)bis(3-hydroxy-3-methylurea)] | 55 | 76 | 91 | – |
